In US9132140B2, “Boronic acid derivatives and therapeutic uses thereof” (Rempex Pharmaceuticals, Inc., priority 2013, dated 2015):
Like-named read-outs stand apart in the source and are kept apart here.

Tests used:
[1] = tested on: KP1087 (KPC-2, CTX-M-15, SHV-11, TEM-1); type: cell-based, Klebsiella pneumoniae; settings: KP1087; alone
Text: (§1) The results are present in Table 6.
(§2) The results are present in Table 7.

[2] = tested on: KP1081 (NDM-1, TEM-1, SHV-11, CMY-6, CTX-M-15); type: cell-based, Klebsiella pneumoniae; settings: KP1081; alone
Text: as §1, §2

P99/AmpC of ECL = P99/AmpC of ECL (Enterobacter cloacae, UniProt P05364); test: biochemical; settings: nitrocefin; read-out: Ki (P99/AmpC of ECL, NCF)
Protocol: (§3) Purified enzymes were mixed with various concentrations of inhibitors in reaction buffer and incubated for 10 min at room temperature. Nitrocefin was added and substrate cleavage profiles were recorded at 490 nm every 10 sec for 10 min.

CTX-M-14 = CTX-M-14 (Escherichia coli, UniProt Q9L5C7); test: Inhibition of purified beta-lactamase, nitrocefin cleavage; type: biochemical
Protocol: as §3

OXA-48 = OXA-48 (Klebsiella pneumoniae, UniProt Q6XEC0); test: as above; type: biochemical; settings: read-out: Ki (OXA-48, NCF)
Protocol: as §3

KPC-2 [3] = target: T1, KPC-2 (Klebsiella pneumoniae, UniProt Q9F663); test: as above; type: biochemical; settings: read-out: Ki (KPC-2, NCF)
Protocol: as §3

SHV-12 = SHV-12 (Klebsiella pneumoniae, UniProt P0AD64, E235K/G234S/L31Q); test: as above; type: biochemical; settings: read-out: Ki (SHV-12, NCF)
Protocol: as §3

CMY-2 = CMY-2 (Klebsiella pneumoniae, UniProt Q48434); test: as above; type: biochemical
Protocol: as §3

KPC-2 [4] = target: T1, KPC-2; test: Inhibition of purified class A carbapenemase, biapenem cleavage; type: biochemical; settings: substrate biapenem 100 μM
NDM-1 = NDM-1 (Klebsiella pneumoniae, UniProt C7C422); test: biochemical; settings: substrate imipenem 100 μM
[5] = nitrocefin, read-out: Ki (CMY-2, NCF)

CMY-2, sequence (Q48434 21-381, species assumed): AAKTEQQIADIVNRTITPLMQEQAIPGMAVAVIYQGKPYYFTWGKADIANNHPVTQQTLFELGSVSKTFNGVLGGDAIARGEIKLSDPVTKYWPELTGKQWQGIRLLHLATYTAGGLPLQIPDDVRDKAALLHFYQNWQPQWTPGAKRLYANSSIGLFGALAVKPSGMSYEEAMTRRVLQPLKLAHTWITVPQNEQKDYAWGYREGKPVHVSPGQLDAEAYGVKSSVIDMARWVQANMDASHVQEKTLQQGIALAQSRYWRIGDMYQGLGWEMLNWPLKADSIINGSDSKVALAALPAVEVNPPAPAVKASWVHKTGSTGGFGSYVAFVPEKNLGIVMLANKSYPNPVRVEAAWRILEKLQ
CTX-M-14, sequence (Q9L5C7 entry or part of it): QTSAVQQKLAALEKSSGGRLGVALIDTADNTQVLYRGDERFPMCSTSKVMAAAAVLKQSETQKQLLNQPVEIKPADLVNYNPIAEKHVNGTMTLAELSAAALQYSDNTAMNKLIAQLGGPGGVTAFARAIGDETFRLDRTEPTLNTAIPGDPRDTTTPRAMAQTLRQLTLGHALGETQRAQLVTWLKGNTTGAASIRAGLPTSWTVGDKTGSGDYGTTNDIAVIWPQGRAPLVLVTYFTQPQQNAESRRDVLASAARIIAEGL
T1 sequence (Q9F663 25-293, looked up, species assumed): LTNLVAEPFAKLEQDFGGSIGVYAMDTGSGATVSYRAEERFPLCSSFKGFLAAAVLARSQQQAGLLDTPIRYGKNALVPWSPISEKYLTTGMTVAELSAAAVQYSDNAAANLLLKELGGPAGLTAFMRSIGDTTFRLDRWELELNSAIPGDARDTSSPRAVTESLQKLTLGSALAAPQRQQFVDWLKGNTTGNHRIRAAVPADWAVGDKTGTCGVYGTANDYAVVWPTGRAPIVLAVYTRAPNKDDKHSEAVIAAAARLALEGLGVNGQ
NDM-1, sequence (C7C422 29-270, looked up, species assumed): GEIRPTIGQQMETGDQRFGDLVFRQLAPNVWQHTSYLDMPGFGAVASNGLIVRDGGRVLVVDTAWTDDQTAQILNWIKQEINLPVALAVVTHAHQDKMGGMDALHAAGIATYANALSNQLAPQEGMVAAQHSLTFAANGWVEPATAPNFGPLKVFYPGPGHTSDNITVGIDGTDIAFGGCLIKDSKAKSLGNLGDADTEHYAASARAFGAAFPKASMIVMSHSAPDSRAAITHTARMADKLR
SHV-12, sequence (P0AD64 22-286 L31Q/G234S/E235K): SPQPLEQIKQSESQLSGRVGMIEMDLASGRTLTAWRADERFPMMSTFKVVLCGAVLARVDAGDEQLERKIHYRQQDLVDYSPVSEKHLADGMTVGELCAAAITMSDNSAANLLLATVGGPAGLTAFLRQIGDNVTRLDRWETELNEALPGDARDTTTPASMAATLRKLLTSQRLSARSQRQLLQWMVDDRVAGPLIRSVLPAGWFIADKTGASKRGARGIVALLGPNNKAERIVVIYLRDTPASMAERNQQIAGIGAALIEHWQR
OXA-48, sequence (Q6XEC0 23-265, looked up): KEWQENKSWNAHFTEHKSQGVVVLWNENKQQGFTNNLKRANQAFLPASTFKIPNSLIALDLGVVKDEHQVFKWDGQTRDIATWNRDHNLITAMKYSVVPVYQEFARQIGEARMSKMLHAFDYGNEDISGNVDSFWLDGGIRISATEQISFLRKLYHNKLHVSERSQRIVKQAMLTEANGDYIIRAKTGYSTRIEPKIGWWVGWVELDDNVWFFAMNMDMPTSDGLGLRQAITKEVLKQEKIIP
P99/AmpC of ECL, sequence (P05364 21-381): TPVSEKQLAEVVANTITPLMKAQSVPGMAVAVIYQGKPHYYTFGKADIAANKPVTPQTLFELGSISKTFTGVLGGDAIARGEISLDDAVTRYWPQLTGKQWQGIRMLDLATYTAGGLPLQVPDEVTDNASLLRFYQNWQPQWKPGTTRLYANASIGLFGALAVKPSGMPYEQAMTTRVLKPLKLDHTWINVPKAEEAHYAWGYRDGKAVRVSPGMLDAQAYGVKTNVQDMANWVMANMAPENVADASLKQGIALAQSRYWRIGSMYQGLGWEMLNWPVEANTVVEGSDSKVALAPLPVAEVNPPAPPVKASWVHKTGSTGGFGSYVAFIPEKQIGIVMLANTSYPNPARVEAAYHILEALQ

| SMILES | Carbapenem MIC alone [1] | Carbapenem MIC alone [2] | Ki (P99/AmpC of ECL) | Ki (CTX-M-14) | Ki (OXA-48) | Ki (KPC-2 [3]) | Ki (SHV-12) | Ki (CMY-2; [5]) | Ki (CMY-2) | Ki (CTX-M-14; nitrocefin, read-out: Ki (CTX-M-14, NCF)) | Ki (KPC-2 [4]) | Ki (NDM-1) |
| --- | --- | --- | --- | --- | --- | --- | --- | --- | --- | --- | --- | --- |
| C[C@@H](O)[C@H]1C(=O)N2C(C(=O)O)=C(S[C@@H]3CN[C@H](CNS(N)(=O)=O)C3)[C@H](C)[C@H]12 [Doripenem] | Z (MIC of greater than 10 μg/mL) | Z (MIC of greater than 10 μg/mL) |  |  |  |  |  |  |  |  |  |  |
| O=C(O)c1cccc2c1OB(O)[C@@H](OC1CNC1)C2 [Compound 18, (R)-3-(azetidin-3-yloxy)-2-hydroxy-3,4-dihydro-2H-benzo[e][1,2]oxaborinine-8-carboxylic acid] |  |  | 100 to 1000 nM | 100 to 1000 nM | < 100 nM | 100 to 1000 nM | < 100 nM |  |  |  |  |  |
| CO[C@H]1Cc2cccc(C(=O)O)c2OB1O [Compound 17, (R)-2-hydroxy-3-methoxy-3,4-dihydro-2H-benzo[e][1,2]oxaborinine-8-carboxylic acid] |  |  | < 100 nM | < 100 nM | < 100 nM | < 100 nM | < 100 nM |  |  |  |  |  |
| Nn1cnnc1S[C@H]1Cc2ccc(F)c(C(=O)O)c2OB1O [Compound 20, (R)-3-(4-amino-4H-1,2,4-triazol-3-ylthio)-7-fluoro-2-hydroxy-3,4-dihydro-2H-benzo[e][1,2]oxaborinine-8-carboxylic acid] |  |  | 100 to 1000 nM | < 100 nM | 100 to 1000 nM | 100 to 1000 nM | < 100 nM |  |  |  |  |  |
| O=C(O)c1cccc2c1OB(O)[C@@H](Sc1nccs1)C2 [Compound 11, (R)-2-hydroxy-3-(thiazol-2-ylthio)-3,4-dihydro-2H-benzo[e][1,2]oxaborinine-8-carboxylic acid] |  |  | < 100 nM |  | < 100 nM |  | < 100 nM | < 100 nM |  |  |  |  |
| C[C@]1(Cn2ccnn2)[C@H](C(=O)O)N2C(=O)C[C@H]2S1(=O)=O [Tazobactam, reference compound] |  |  |  |  | 100 to 1000 nM | > 1000 nM |  |  | 100 to 1000 nM |  |  |  |
| NC(=O)CC1Cc2cccc(C(=O)O)c2OB1O (centres unmarked) [Compound 22, 3-(2-amino-2-oxoethyl)-2-hydroxy-3,4-dihydro-2H-benzo[e][1,2]oxaborinine-8-carboxylic acid] |  |  | < 100 nM | < 100 nM | < 100 nM | < 100 nM | < 100 nM | < 100 nM |  |  |  |  |
| NC(=O)CCS[C@H]1Cc2cccc(C(=O)O)c2OB1O [Compound 9, (R)-3-(3-amino-3-oxopropylthio)-2-hydroxy-3,4-dihydro-2H-benzo[e][1,2]oxaborinine-8-carboxylic acid] |  |  | < 100 nM | < 100 nM | < 100 nM | < 100 nM | 100 to 1000 nM | < 100 nM |  |  |  |  |
| Nc1nnc(S[C@H]2Cc3cccc(C(=O)O)c3OB2O)s1 [Compound 4, (R)-3-(5-amino-1,3,4-thiadiazol-2-ylthio)-2-hydroxy-3,4-dihydro-2H-benzo[e][1,2]oxaborinine-8-carboxylic acid] |  |  | < 100 nM | < 100 nM | < 100 nM |  | < 100 nM | < 100 nM |  |  |  |  |
| O=C(O)[C@H]1/C(=C/CO)O[C@@H]2CC(=O)N21 [Clavulanic acid, reference compound] |  |  |  |  | > 1000 nM | > 1000 nM |  | > 1000 nM |  | < 100 nM |  |  |
| O=C(O)c1cccc2c1OB(O)[C@@H](Sc1nnc[nH]1)C2 [Compound 2, (R)-3-(4H-1,2,4-triazol-3-ylthio)-2-hydroxy-3,4-dihydro-2H-benzo[e][1,2]oxaborinine-8-carboxylic acid] |  |  | 100 to 1000 nM | 100 to 1000 nM | < 100 nM | 100 to 1000 nM | < 100 nM | 100 to 1000 nM |  |  | 10 to 100 nM |  |
| Cn1cnnc1S[C@H]1Cc2cccc(C(=O)O)c2OB1O [Compound 15, (R)-2-hydroxy-3-(4-methyl-4H-1,2,4-triazol-3-ylthio)-3,4-dihydro-2H-benzo[e][1,2]oxaborinine-8-carboxylic acid] |  |  | < 100 nM | < 100 nM | < 100 nM | 100 to 1000 nM | < 100 nM | < 100 nM |  |  | 10 to 100 nM | < 10 nM |
| Nc1nnc(S[C@H]2Cc3ccc(F)c(C(=O)O)c3OB2O)s1 [Compound 23, (R)-3-(5-amino-1,3,4-thiadiazol-2-ylthio)-7-fluoro-2-hydroxy-3,4-dihydro-2H-benzo[e][1,2]oxaborinine-8-carboxylic acid] |  |  | < 100 nM | < 100 nM | < 100 nM | < 100 nM | < 100 nM |  |  |  |  |  |
| CSc1ccc2c(c1C(=O)O)OB(O)[C@@H](Sc1nncn1N)C2 [Compound 25, (R)-3-(4-amino-4H-1,2,4-triazol-3-ylthio)-2-hydroxy-7-(methylthio)-3,4-dihydro-2H-benzo[e][1,2]oxaborinine-8-carboxylic acid] |  |  | 100 to 1000 nM | < 100 nM | < 100 nM | 100 to 1000 nM | < 100 nM |  |  |  |  |  |
| CC(=O)Nc1nnc(S[C@H]2Cc3cccc(C(=O)O)c3OB2O)s1 [Compound 7, (R)-3-(5-acetamido-1,3,4-thiadiazol-2-ylthio)-2-hydroxy-3,4-dihydro-2H-benzo[e][1,2]oxaborinine-8-carboxylic acid] |  |  | < 100 nM | < 100 nM | < 100 nM |  | < 100 nM | < 100 nM |  |  |  |  |
| NC(=O)CS[C@H]1Cc2cccc(C(=O)O)c2OB1O [Compound 3, (R)-3-(2-amino-2-oxoethylthio)-2-hydroxy-3,4-dihydro-2H-benzo[e][1,2]oxaborinine-8-carboxylic acid] |  |  | < 100 nM | < 100 nM | < 100 nM | < 100 nM | 100 to 1000 nM | < 100 nM |  |  | 10 to 100 nM |  |
| CO[C@H]1Cc2ccc(F)c(C(=O)O)c2OB1O [Compound 19, (R)-7-fluoro-2-hydroxy-3-methoxy-3,4-dihydro-2H-benzo[e][1,2]oxaborinine-8-carboxylic acid] |  |  | < 100 nM | < 100 nM | < 100 nM | < 100 nM | < 100 nM |  |  |  |  | > 100 nM |
| CC(=N)S[C@H]1Cc2cccc(C(=O)O)c2OB1O [Compound 10, (R)-2-hydroxy-3-(1-iminoethylthio)-3,4-dihydro-2H-benzo[e][1,2]oxaborinine-8-carboxylic acid] |  |  |  |  |  | 100 to 1000 nM |  |  |  |  |  |  |
| C[C@@H](O)[C@H]1C(=O)N2C(C(=O)[O-])=C(SC3Cn4cnc[n+]4C3)[C@H](C)[C@H]12 (some centres unmarked) [Biapenem] | Z (MIC of greater than 10 μg/mL) | Z (MIC of greater than 10 μg/mL) |  |  |  |  |  |  |  |  |  |  |
| Cn1cnnc1S[C@H]1Cc2ccc(F)c(C(=O)O)c2OB1O [Compound 24, (R)-7-fluoro-2-hydroxy-3-(4-methyl-4H-1,2,4-triazol-3-ylthio)-3,4-dihydro-2H-benzo[e][1,2]oxaborinine-8-carboxylic acid] |  |  | 100 to 1000 nM | < 100 nM | < 100 nM | 100 to 1000 nM | < 100 nM |  |  |  |  |  |
| CS[C@H]1Cc2cccc(C(=O)O)c2OB1O [Compound 16, (R)-2-hydroxy-3-(methylthio)-3,4-dihydro-2H-benzo[e][1,2]oxaborinine-8-carboxylic acid] |  |  | < 100 nM | < 100 nM | < 100 nM | < 100 nM | 100 to 1000 nM |  |  |  | 10 to 100 nM | > 100 nM |
| O=C(O)c1cccc2c1OB(O)[C@@H](Sc1c[nH]nn1)C2 [Compound 12, (R)-3-(1H-1,2,3-triazol-4-ylthio)-2-hydroxy-3,4-dihydro-2H-benzo[e][1,2]oxaborinine-8-carboxylic acid] |  |  |  |  |  | 100 to 1000 nM |  |  |  |  |  |  |
